Data on 15 compounds can be found in article PMC6070903 (Viruses, 2018).

One data set relates to HSV-1 strain KOS. The experiment in a line: Anti-HSV-1 plaque reduction assay in Vero cells. The format is cell-based, Herpes simplex virus. Particulars: for Selectivity Index CC50/IC50: HSV-1, Vero CC50 / IC50; for IC50: Human alphaherpesvirus 1, HSV-1, plaque reduction, 72 h, Vero cells.
Another data set deals with S. aureus ATCC 29213. Kind of data set: Broth microdilution MIC. Particulars: Staphylococcus aureus, ATCC29213, 24 h, 35 ± 2 °C. Type of data set: cell-based. In general terms: Dilution methods test growth across graded concentrations, often in twofold steps.
For a further data set, the system named is B. cereus ATCC 11778. The experiment in a line: Broth microdilution MIC. Type of data set: cell-based. Particulars: Bacillus cereus, ATCC11778, 24 h, 35 ± 2 °C.
Another data set has as its system E. coli ATCC 25922. Kind of data set: Broth microdilution MIC. Type of data set: cell-based. The conditions noted are these: Escherichia coli, ATCC25922, 24 h, 35 ± 2 °C.
In the next data set the test system is P. aeruginosa ATCC 27853. The experiment in a line: Broth microdilution MIC. Type of data set: cell-based. Particulars: Pseudomonas aeruginosa, ATCC27853, 24 h, 35 ± 2 °C.
The next data set has as its system C. albicans ATCC 10231. Kind of data set: Broth microdilution MIC. Type of data set: cell-based. Particulars: Candida albicans, ATCC10231, 48 h, 25 ± 2 °C.
The test system of data set [1] is THP-1 cells. The experiment in a line: Pyocyanin-triggered ROS production in THP-1 cells, DCFH-DA. The conditions noted are these: 5 μM, pyocyanin 100 μM, THP-1 monocytes. Type of data set: cell-based, human.
Data set [2] has as its system Gram-positive bacteria S. aureus and B. cereus. The experiment in a line: Broth microdilution MIC, summary for both Gram-positive strains. Particulars: S. aureus and B. cereus together. Type of data set: cell-based.
Another data set in a line: in vitro. Particulars: African green monkey.
For data set [3], the system named is HSV-2 (clinical isolates, acyclovir-sensitive). Kind of data set: Anti-HSV-2 titer reduction assay in Vero cells. The conditions noted are these: for Selectivity Index CC50/EC50: HSV-2, Vero CC50 / EC50; for EC50: Human alphaherpesvirus 2, HSV-2, titer reduction, 48 h, Vero cells. Type of data set: cell-based, Herpes simplex virus.
Another data set has as its system IL-1β. Kind of data set: LPS-stimulated IL-1β secretion in PMA-differentiated THP-1 macrophages, ELISA. Type of data set: cell-based, human. The conditions noted are these: 5 μM, LPS 1 μg/mL, 24 h. A general note: ELISA stands for enzyme-linked immunosorbent assay.
Another data set has as its system TNF-α. The experiment in a line: LPS-stimulated TNF-α secretion in PMA-differentiated THP-1 macrophages, ELISA. Type of data set: cell-based, human. Particulars: 5 μM, LPS 1 μg/mL, 24 h.
A further data set concerns NF-κB/AP-1. Kind of data set: NF-κB/AP-1 activity, SEAP reporter in LPS-stimulated THP-1-XBlue-MD2-CD14 cells. Type of data set: cell-based, human. Particulars: 5 μM, LPS 1 μg/mL, 24 h, vs vehicle.
Data set [4] has as its system THP-1 cells. Kind of data set: Cell viability of THP-1 cells, WST-1 assay. Type of data set: cell-based. The conditions noted are these: Homo sapiens, WST-1, 24 h, 0.25 to 20 μM, read-out: IC50 for the THP-1 cell line (viability).
The test system of data set [5] is HL-60 (promyelocytic leukemia) cells. On the set-up: method as in earlier work. The conditions noted are these: read-out: IC50 against HL-60 cells; cited from earlier work.

Molecules are shown by their SMILES. In brackets after ≈: the same amount, converted by molar mass.

In general, IC50 refers to the concentration at which inhibition is half-maximal. A word on the MIC: it is the smallest concentration in the dilution series that meets the test's criterion for growth inhibition. Regarding `Cc1c(O)c(C=O)c(O)c(C(=O)CC(C)C)c1O` [Compound 2, Grandinol], in the data set with HSV-1 strain KOS, the “Selectivity Index CC50/IC50” value is over 170.7. In addition, the IC50 in the data set on HSV-1 strain KOS was found to be 1.23 ± 0.13 µg/mL (≈ 4.88 µM). In addition, the MIC against S. aureus ATCC 29213 was 16 µg/mL (≈ 63.4 µM); in the data set on B. cereus ATCC 11778 it was 16 µg/mL (≈ 63.4 µM); with E. coli ATCC 25922, over 64 µg/mL; in the data set on P. aeruginosa ATCC 27853 it was over 64 µg/mL; with C. albicans ATCC 10231 it was over 64 µg/mL. The “Effect on production of ROS” value with THP-1 cells [1] was “significantly increased the production of ROS”. Besides, in [2], the “MIC range against both Gram-positive strains” value was in the range of 8 to 32 µg/mL. Moreover, in “in vitro”, the CC50 at 84 h is over 210 µg/mL.

In general, EC50 refers to the midpoint of the concentration-response curve. `Cc1cc(=O)c2c(O)cc(O[C@@H]3O[C@H](COC(=O)C4=CC[C@H](C(C)(C)O)CC4)[C@@H](O)[C@H](O)[C@H]3O)cc2o1` [Compound 5, Cypellocarpin C]: the “Selectivity Index CC50/EC50” value in data set [3] was over 287.7. A half-maximal response in [3] (EC50) required 0.73 ± 0.11 µg/mL (≈ 1.4 µM). Moreover, the MIC in the data set on S. aureus ATCC 29213, against B. cereus ATCC 11778, against E. coli ATCC 25922, in the data set with P. aeruginosa ATCC 27853 and against C. albicans ATCC 10231 was over 128 µg/mL each time. For the same compound, the CC50 at 84 h in “in vitro” is over 210 µg/mL.

For `C[C@H]1[C@H](C)CC[C@]2(C(=O)O)CC[C@]3(C)C(=CC[C@@H]4[C@@]5(C)CC[C@H](O)C(C)(C)[C@@H]5CC[C@]43C)[C@H]12` [Compound 11, Ursolic acid], the MIC with S. aureus ATCC 29213 is 128 µg/mL (≈ 280 µM); against B. cereus ATCC 11778, 32 µg/mL (≈ 70.1 µM); in the data set with E. coli ATCC 25922, over 128 µg/mL; in the data set on P. aeruginosa ATCC 27853 it was over 128 µg/mL; in the data set with C. albicans ATCC 10231, over 128 µg/mL.

On to `Nc1nc2c(ncn2COCCO)c(=O)[nH]1` [Acyclovir, acyclovir, reference compound], for which the IC50 in the data set with HSV-1 strain KOS was 1.92 ± 0.23 µg/mL (≈ 8.53 µM). Besides, the EC50 in data set [3] was 1.75 ± 0.33 µg/mL (≈ 7.77 µM). In the data set “in vitro”, this compound displayed a CC50 at 84 h of over 210 µg/mL.

As to `COc1ccc(-c2cc(=O)c3c(O)c(C)c(OC)c(C)c3o2)cc1` [Compound 8, Eucalyptin], the MIC in the data set with S. aureus ATCC 29213, against B. cereus ATCC 11778, against E. coli ATCC 25922, with P. aeruginosa ATCC 27853 and with C. albicans ATCC 10231 was over 64 µg/mL throughout. Besides, the “Effect on LPS-stimulated secretion of IL-1β” value in the data set with IL-1β was “increased the secretion of the IL-1β”. Also, in the data set with TNF-α, the “Effect on LPS-stimulated secretion of TNF-α” value was “Neither compound 8 nor 12 showed any influence on the secretion of TNF-α”.

For the compound `c1cc2c(cc1[C@H]1OC[C@H]3[C@@H]1CO[C@@H]3c1ccc3c(c1)OCO3)OCO2` [Compound 10, Sesamin], the MIC against S. aureus ATCC 29213, against B. cereus ATCC 11778, in the data set on E. coli ATCC 25922, with P. aeruginosa ATCC 27853 and with C. albicans ATCC 10231 was over 32 µg/mL each time.

Consider `CN(C)[C@@H]1C(O)=C(C(N)=O)C(=O)[C@@]2(O)C(O)=C3C(=O)c4c(O)cccc4[C@@](C)(O)[C@H]3C[C@@H]12` [tetracycline, reference compound], for which the MIC stood at 0.125 µg/mL (≈ 0.281 µM) against S. aureus ATCC 29213, 0.03 µg/mL (≈ 0.0675 µM) against B. cereus ATCC 11778, 1 µg/mL (≈ 2.25 µM) against E. coli ATCC 25922 and 16 µg/mL (≈ 36 µM) in the data set on P. aeruginosa ATCC 27853.

Turning to `COc1ccc(-c2cc(=O)c3c(O)c(C)c(OC)cc3o2)cc1` [Compound 9, 8-Demethyleucalyptin], the MIC in the data set with S. aureus ATCC 29213, in the data set with B. cereus ATCC 11778, against E. coli ATCC 25922, in the data set with P. aeruginosa ATCC 27853 and with C. albicans ATCC 10231 was over 64 µg/mL throughout. Also, in the data set on NF-κB/AP-1, the “Effect on NF-κB/AP-1 activity” value was “reduce the activation of NF-κB/AP-1”.

As to `COc1cc2oc(-c3ccc(O)cc3)cc(=O)c2c(O)c1C` [Compound 7, 8-Demethylsideroxylin], the MIC against S. aureus ATCC 29213 was over 128 µg/mL; against B. cereus ATCC 11778 it was 128 µg/mL (≈ 429 µM); in the data set on E. coli ATCC 25922, over 128 µg/mL; with P. aeruginosa ATCC 27853, over 128 µg/mL; with C. albicans ATCC 10231 it was over 128 µg/mL. Also, the “Effect on NF-κB/AP-1 activity” value with NF-κB/AP-1 is reported as “enhance it”.

Take `C=C(C)C1CCC(=C)C2(O)CCC3(C)C(CC(C)C)c4c(O)c(C=O)c(O)c(C=O)c4OC3C12` (centres unmarked) [Compound 4, Eucalyptal A]: the MIC with S. aureus ATCC 29213 is over 128 µg/mL; in the data set on B. cereus ATCC 11778, 32 µg/mL (≈ 68.3 µM); against E. coli ATCC 25922, over 128 µg/mL; with P. aeruginosa ATCC 27853, over 128 µg/mL; against C. albicans ATCC 10231, over 128 µg/mL. For the same compound, the values for the IC50 (in the data set on THP-1 cells [4]; in data set [5]) were 1200 nM and 1700 nM, respectively.

The compound `Clc1ccc(C(Cn2ccnc2)OCc2ccsc2Cl)c(Cl)c1` (centres unmarked) [tioconazole, reference compound] came in with an MIC against C. albicans ATCC 10231 of 4 µg/mL (≈ 10.3 µM).

Take `C=C1CC[C@H](C(C)(C)O)/C=C/[C@@H](C)CCC1=O` [Compound 1, Litseagermacrane]: in data set [3], the “Selectivity Index CC50/EC50” value is listed as over 168.0. The compound further returned an EC50 in data set [3] of 1.25 ± 0.2 µg/mL (≈ 5.29 µM). The MIC was over 64 µg/mL in the data set with S. aureus ATCC 29213; 64 µg/mL (≈ 271 µM) against B. cereus ATCC 11778; over 64 µg/mL in the data set with E. coli ATCC 25922; over 64 µg/mL with P. aeruginosa ATCC 27853; over 64 µg/mL against C. albicans ATCC 10231. For the same compound, in the data set with THP-1 cells [1], the “Effect on production of ROS” value is given as “no significant antioxidant potential”. Moreover, in “in vitro”, the CC50 at 84 h was over 210 µg/mL.

Consider `COc1c(C)c(O)c2c(=O)cc(-c3ccc(O)cc3)oc2c1C` [Compound 6, Sideroxylin], for which, in the data set on HSV-1 strain KOS, the “Selectivity Index CC50/IC50” value is listed as over 145.8. This compound also came in with an IC50 with HSV-1 strain KOS of 1.44 ± 0.14 µg/mL (≈ 4.61 µM). Besides, the MIC in the data set on S. aureus ATCC 29213 was over 64 µg/mL; with B. cereus ATCC 11778, 64 µg/mL (≈ 205 µM); against E. coli ATCC 25922, over 64 µg/mL; in the data set on P. aeruginosa ATCC 27853, over 64 µg/mL; with C. albicans ATCC 10231, over 64 µg/mL. For the same compound, the “Effect on NF-κB/AP-1 activity” value in the data set on NF-κB/AP-1 is on record as “enhance it”. For the same compound, the CC50 at 84 h in “in vitro” is over 210 µg/mL.

Turning to `CCC(C)C(=O)c1c(O)cc(OC)c(C)c1O` (centres unmarked) [Compound 3, Pulverulentone B], the MIC in the data set with S. aureus ATCC 29213 was 32 µg/mL (≈ 134 µM); in the data set with B. cereus ATCC 11778 it was 8 µg/mL (≈ 33.6 µM); in the data set on E. coli ATCC 25922, over 32 µg/mL; against P. aeruginosa ATCC 27853 it was over 32 µg/mL; against C. albicans ATCC 10231, over 32 µg/mL. The “Effect on production of ROS” value with THP-1 cells [1] is on record as “no significant antioxidant potential”. The “MIC range against both Gram-positive strains” value in [2] was 8 to 32 µg/mL.

On to `COc1cc(/C=C/C(=O)O[C@H]2CC[C@]3(C)[C@H]4C=C[C@]56OC(=O)[C@@]7(CC[C@@H](C)[C@H](C)[C@H]75)CC[C@@]6(C)[C@]4(C)CC[C@H]3C2(C)C)ccc1O` [Compound 12, Tereticornate A], for which the “Selectivity Index CC50/IC50” value in the data set with HSV-1 strain KOS is reported as over 218.8. For the same compound, in the data set with HSV-1 strain KOS, 0.96 ± 0.12 µg/mL (≈ 1.52 µM) corresponded to half-maximal inhibition (IC50). The MIC against S. aureus ATCC 29213, against B. cereus ATCC 11778, against E. coli ATCC 25922, against P. aeruginosa ATCC 27853 and against C. albicans ATCC 10231 was over 32 µg/mL in each case. For the same compound, in the data set with NF-κB/AP-1, the “Effect on NF-κB/AP-1 activity” value was “statistically significant inhibitory potential, stronger than that of prednisone”. Moreover, in the data set with IL-1β, the “Effect on LPS-stimulated secretion of IL-1β” value was “attenuates the LPS-stimulated secretion of IL-1β”. Moreover, the “Effect on LPS-stimulated secretion of TNF-α” value in the data set with TNF-α is recorded as “Neither compound 8 nor 12 showed any influence on the secretion of TNF-α”. For the same compound, the CC50 at 84 h in the data set “in vitro” is over 210 µg/mL.
